Test results from ChEMBL document CHEMBL3352229, “20(S)-Ginsenoside Rh2 as aldose reductase inhibitor from Panax ginseng” (Bioorg Med Chem Lett, 2014).

Target: Aldo-keto reductase family 1 member B1 (Homo sapiens, UniProt P15121)
Assay: Inhibition of human recombinant aldose reductase using DL-glyceraldehyde, HRAR and beta-NADPH incubated for 10 mins by spectrophotometry

Row | Compound | IC50 [µM]
1 | CC(C)=CCCC(C)(O)[C@H]1CC[C@]2(C)[C@@H]1[C@H](O)C[C@@H]1[C@@]3(C)CC[C@H](O[C@@H]4O[C@H](CO)[C@@H](O)[C@H](O)[C@H]4O)C(C)(C)[C@@H]3CC[C@]12C (mixture of isomers) | > 200
2 | CC(C)=CCC[C@@](C)(O)[C@H]1CC[C@]2(C)[C@@H]1[C@H](O)C[C@@H]1[C@@]3(C)CC[C@H](O[C@@H]4O[C@H](CO)[C@@H](O)[C@H](O)[C@H]4O[C@@H]4O[C@H](CO)[C@@H](O)[C@H](O)[C@H]4O)C(C)(C)[C@@H]3CC[C@]12C | > 200
3 | CC(C)=CCC[C@@](C)(O)[C@H]1CC[C@]2(C)[C@@H]1[C@H](O)C[C@@H]1[C@@]3(C)CC[C@H](O[C@@H]4O[C@H](CO)[C@@H](O)[C@H](O)[C@H]4O)C(C)(C)[C@@H]3CC[C@]12C | > 200
4 | CC(C)=CCC[C@](C)(O)[C@H]1CC[C@]2(C)[C@@H]1[C@H](O)C[C@@H]1[C@@]3(C)CC[C@H](O[C@@H]4O[C@H](CO)[C@@H](O)[C@H](O)[C@H]4O)C(C)(C)[C@@H]3CC[C@]12C [GINSENOSIDE RH2] | 147
5 | CC(C)=CCC[C@](C)(O[C@@H]1O[C@H](CO)[C@@H](O)[C@H](O)[C@H]1O)[C@H]1CC[C@]2(C)[C@@H]1[C@H](O)C[C@@H]1[C@@]3(C)CC[C@H](O)C(C)(C)[C@@H]3CC[C@]12C | > 200
6 | CC(C)=CCC[C@](C)(O)[C@H]1CC[C@@]2(C)[C@@H]1[C@@H](O)C[C@@H]1[C@@]3(C)CC[C@H](O)C(C)(C)[C@@H]3[C@@H](O[C@@H]3O[C@H](CO)[C@@H](O)[C@H](O)[C@H]3O[C@@H]3O[C@H](CO)[C@@H](O)[C@H](O)[C@H]3O)C[C@]12C | > 200
7 | CC(C)=CCC[C@](C)(O)[C@H]1CC[C@]2(C)[C@@H]1[C@H](O)C[C@@H]1[C@@]3(C)CC[C@H](O[C@@H]4O[C@H](CO)[C@@H](O)[C@H](O)[C@H]4O[C@@H]4O[C@H](CO)[C@@H](O)[C@H](O)[C@H]4O)C(C)(C)[C@@H]3CC[C@]12C | > 200
8 | CC(C)=CCC[C@](C)(O)[C@H]1CC[C@]2(C)[C@@H]1[C@H](O)C[C@@H]1[C@@]3(C)CC[C@H](O)C(C)(C)[C@@H]3[C@@H](O[C@@H]3O[C@H](CO)[C@@H](O)[C@H](O)[C@H]3O)C[C@]12C [GINSENOSIDE RH1] | > 200
